Source: patent US20230072421A1, “TARGETED RADIOPHARMACEUTICALS FOR THE DIAGNOSIS AND TREATMENT OF PROSTATE CANCER” (Bayer AS, priority 2019, published 2023)

Columns and labels:
22Rv1 cells = experiment: Cell proliferation assay (CellTiter-Glo, 5-day exposure), 22Rv1; type: cell-based; details: 22Rv1, 1000 cells/well, Th-227 labelled at 375 kBq/nmol, mean of 1 to 6 experiments
Method in brief: (§1)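 Prostate cancer cells (VCaP 4000/well; 22Rv1, C4-2, LNCaP 1000/well), Th-227-labelled PSMA ligands, 5-day exposure; viability by CTG at start and end.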

[1] = test system: LNCaP human prostate cancer cells; experiment: LNCaP xenograft efficacy study (T/C tumor area); type: in vivo, SCID mice
Experimental: (§2) SCID mice were randomly assigned to experimental groups, ten animals per group (efficacy) or n=3-5 per time point of biodistribution study. At the initiation of the study, a testosterone pellet was subcutaneously transplanted, the animals were shaved, tattooed and each cage was labeled with the cage number, study number and number of animals per cage.
(§3) LNCaP human prostate cancer cells were cultured as described according to the supplier's protocols. Cells were harvested for transplantation in a subconfluent (70%) state. Animals were injected with 5×10^6 LNCaP cells suspended in 100% Matrigel subcutaneously into the flank of the mice.
Efficacy study: When tumors reached a predetermined size in mice of 35-50 mm^2 animals were randomized into treatment and control groups (n=10 animals/group) and treatment with the defined radioactive dose was started. The i.v. application volume was 100 μl/mice.
Tumor response was assessed by determination of the tumor area (product of the longest diameter and its perpendicular) using a caliper. The animal body weight was monitored as a measure for treatment-related toxicity. Measurement of tumor area and body weight was performed two to three times weekly.
Animals were sacrificed when showing signs of toxicity (>20% body weight loss) or when tumors reached a size of approximately 200 mm^2.
Tumor growth inhibition is presented as T/C ratio (Treatment/Control) calculated with tumor areas when the vehicle control group had to be closed.

C4-2 cells = experiment: Cell proliferation assay (CellTiter-Glo, 5-day exposure), C4-2; type: cell-based; details: C4-2, 1000 cells/well, Th-227 labelled at 375 kBq/nmol, mean of 1 to 6 experiments
Method in brief: as §1

VCaP cells = experiment: Cell proliferation assay (CellTiter-Glo, 5-day exposure), VCaP; type: cell-based; details: 4000 cells/well, Th-227 labelled at 375 kBq/nmol, mean of 1 to 6 experiments
Method in brief: as §1

[2] = Biodistribution study in LNCaP tumor-bearing mice (Th227 counted in organs); type: in vivo, SCID mice; details: 500 kBq/kg
Experimental: as §2, §3
Biodistribution study: When tumors reached a predetermined size in mice of ˜50 mm^2 animals were randomized into groups (n=3 animals/time point) and the radioactive compound was once applied intravenously. The i.v. application volume was 100 μl/mice.
At the predetermined time point, n=3 animals were sacrificed, the organs removed, weight and measured in a Germanium detector to count the Th227 in the sample.

[3] = comparison of % injected dose per gram tissue

## O=C(O)CCC(NC(=O)NC(CCCCNC(=O)C(Cc1ccc2ccccc2c1)NC(=O)C1CCC(CNC(=S)Nc2ccc(CC(CN(CCNC(=O)c3ccn(CCO)c(=O)c3[O-])CCNC(=O)c3ccn(CCO)c(=O)c3[O-])CN(CCNC(=O)c3ccn(CCO)c(=O)c3[O-])CCNC(=O)c3ccn(CCO)c(=O)c3[O-])cc2)CC1)C(=O)O)C(=O)O.[227Th+4] (stereo not drawn) [Example 1-F-227Th]
22Rv1 cells
  Proliferation assay on cancer cell lines by TTCs Default Pivot #3 IC50 [kBq/mL] 22Rv1 1000cells 375kBq/nmol (mean): 1.06 kBq/mL
[1]; Example I, day 27, 2 x 400 + 2 x 750 kBq/kg weekly
  T/Carea: 1.03
[1]; Example I, day 37, 2 x 400 + 3 x 750 kBq/kg
  T/Carea: 0.82
C4-2 cells
  Proliferation assay on cancer cell lines by TTCs Default Pivot #3 IC50 [kBq/mL] C4-2 1000cells 375kBq/nmol (mean): 2.14 kBq/mL
VCaP cells
  Proliferation assay on cancer cell lines by TTCs Default Pivot #3 IC50 [kBq/mL] VCap 4000cells 375kBq/nmol (mean): 3.07 kBq/mL
[2]; [3]
  Background in blood, liver and spleen (in words): highest background
[2]; 0.25 h, study b2999
  Th-227 in Blood: 4.80 % ID Th-227/g organ
  Th-227 in Femur and tibia: 1.46 % ID Th-227/g organ
  Th-227 in Kidneys: 51.79 % ID Th-227/g organ
  Th-227 in Liver: 2.63 % ID Th-227/g organ
  Th-227 in Salivary gland: 0.31 % ID Th-227/g organ
  Th-227 in Spleen: 2.35 % ID Th-227/g organ
  Th-227 in Tumor: 9.36 % ID Th-227/g organ
  Th-227 in prostate: 3.62 % ID Th-227/g organ
[2]; 1 hr, study b2999
  Th-227 in Blood: 2.28 % ID Th-227/g organ
  Th-227 in Femur and tibia: 1.68 % ID Th-227/g organ
  Th-227 in Kidneys: 58.96 % ID Th-227/g organ
  Th-227 in Liver: 2.41 % ID Th-227/g organ
  Th-227 in Salivary gland: 2.68 % ID Th-227/g organ
  Th-227 in Spleen: 1.86 % ID Th-227/g organ
  Th-227 in Tumor: 10.58 % ID Th-227/g organ
  Th-227 in prostate: 4.83 % ID Th-227/g organ
[2]; 6 hr, study b2999
  Th-227 in Blood: 0.35 % ID Th-227/g organ
  Th-227 in Femur and tibia: 1.30 % ID Th-227/g organ
  Th-227 in Kidneys: 67.34 % ID Th-227/g organ
  Th-227 in Liver: 2.19 % ID Th-227/g organ
  Th-227 in Salivary gland: 1.48 % ID Th-227/g organ
  Th-227 in Spleen: 1.51 % ID Th-227/g organ
  Th-227 in Tumor: 13.03 % ID Th-227/g organ
  Th-227 in prostate: 1.97 % ID Th-227/g organ
[2]; 24 h, study b2999
  Th-227 in Blood: 0.06 % ID Th-227/g organ
  Th-227 in Femur and tibia: 0.88 % ID Th-227/g organ
  Th-227 in Kidneys: 34.39 % ID Th-227/g organ
  Th-227 in Liver: 2.49 % ID Th-227/g organ
  Th-227 in Salivary gland: 0.75 % ID Th-227/g organ
  Th-227 in Spleen: 0.94 % ID Th-227/g organ
  Th-227 in Tumor: 6.05 % ID Th-227/g organ
  Th-227 in prostate: 0.34 % ID Th-227/g organ
[2]; 72 h, study b2999
  Th-227 in Blood: 0.02 % ID Th-227/g organ
  Th-227 in Femur and tibia: 0.79 % ID Th-227/g organ
  Th-227 in Kidneys: 12.99 % ID Th-227/g organ
  Th-227 in Liver: 1.96 % ID Th-227/g organ
  Th-227 in Salivary gland: 0.73 % ID Th-227/g organ
  Th-227 in Spleen: 1.14 % ID Th-227/g organ
  Th-227 in Tumor: 3.40 % ID Th-227/g organ
  Th-227 in prostate: 0.68 % ID Th-227/g organ
[2]; 168 h, study b2999
  Th-227 in Blood: 0.00 % ID Th-227/g organ
  Th-227 in Femur and tibia: 1.07 % ID Th-227/g organ
  Th-227 in Kidneys: 6.79 % ID Th-227/g organ
  Th-227 in Liver: 2.14 % ID Th-227/g organ
  Th-227 in Salivary gland: 0.74 % ID Th-227/g organ
  Th-227 in Spleen: 1.34 % ID Th-227/g organ
  Th-227 in Tumor: 1.13 % ID Th-227/g organ
  Th-227 in prostate: 0.13 % ID Th-227/g organ
[2]; 336 h, study b2999
  Th-227 in Blood: 0.00 % ID Th-227/g organ
  Th-227 in Femur and tibia: 1.18 % ID Th-227/g organ
  Th-227 in Kidneys: 2.29 % ID Th-227/g organ
  Th-227 in Liver: 1.69 % ID Th-227/g organ
  Th-227 in Salivary gland: 0.42 % ID Th-227/g organ
  Th-227 in Spleen: 1.41 % ID Th-227/g organ
  Th-227 in Tumor: 0.74 % ID Th-227/g organ
  Th-227 in prostate: 0.22 % ID Th-227/g organ

## Cc1cc(C(=O)NCCN(CCCN(CCNC(=O)c2cc(C)n(CC(=O)O)c(=O)c2[O-])CCNC(=O)c2cc(C)n(CC(=O)NCC3CCC(C(=O)NC(Cc4ccc5ccccc5c4)C(=O)NCCCCC(NC(=O)NC(CCC(=O)O)C(=O)O)C(=O)O)CC3)c(=O)c2[O-])CCNC(=O)c2cc(C)n(CC(=O)NCC3CCC(C(=O)NC(Cc4ccc5ccccc5c4)C(=O)NCCCCC(NC(=O)NC(CCC(=O)O)C(=O)O)C(=O)O)CC3)c(=O)c2[O-])c([O-])c(=O)n1CC(=O)O.[227Th+4] (stereo not drawn) [1-C dimer-227Th]
22Rv1 cells
  Proliferation assay on cancer cell lines by TTCs Default Pivot #3 IC50 [kBq/mL] 22Rv1 1000cells 375kBq/nmol (mean): 1.04 kBq/mL
[1]; Example II, day 33 after start of therapy, 375 kBq/kg weekly for 5 weeks
  T/Carea: 0.60
[1]; Example II, day 33 after start of therapy, 750 kBq/kg weekly for 5 weeks
  T/Carea: 0.34
[1]; Example IV, day 36 after start of therapy, once 1 MBq/kg
  T/Carea: 0.48
C4-2 cells
  Proliferation assay on cancer cell lines by TTCs Default Pivot #3 IC50 [kBq/mL] C4-2 1000cells 375kBq/nmol (mean): 1.12 kBq/mL
VCaP cells
  Proliferation assay on cancer cell lines by TTCs Default Pivot #3 IC50 [kBq/mL] VCap 4000cells 375kBq/nmol (mean): 1.55 kBq/mL
[2]; [3]
  Accumulation in the tumor (in words): much higher accumulation in the tumor
  Background in blood, liver and spleen (in words): lower background compared to 1-F-227Th
[2]; 1 h, study b3004
  Th-227 in Blood: 0.90 % ID Th-227/g organ
  Th-227 in Femur bone: 1.39 % ID Th-227/g organ
  Th-227 in Kidneys: 120.74 % ID Th-227/g organ
  Th-227 in Liver: 1.49 % ID Th-227/g organ
  Th-227 in Spleen: 2.33 % ID Th-227/g organ
  Th-227 in Tumor: 19.99 % ID Th-227/g organ
  Th-227 in salivary glands: 5.02 % ID Th-227/g organ
[2]; 24 h, study b3004
  Th-227 in Blood: 0.07 % ID Th-227/g organ
  Th-227 in Femur bone: 1.65 % ID Th-227/g organ
  Th-227 in Kidneys: 102.45 % ID Th-227/g organ
  Th-227 in Liver: 1.34 % ID Th-227/g organ
  Th-227 in Spleen: 1.50 % ID Th-227/g organ
  Th-227 in Tumor: 14.49 % ID Th-227/g organ
  Th-227 in salivary glands: 1.39 % ID Th-227/g organ
[2]; 72 h, study b3004
  Th-227 in Blood: 0.01 % ID Th-227/g organ
  Th-227 in Femur bone: 1.25 % ID Th-227/g organ
  Th-227 in Kidneys: 2.10 % ID Th-227/g organ
  Th-227 in Liver: 1.02 % ID Th-227/g organ
  Th-227 in Spleen: 0.76 % ID Th-227/g organ
  Th-227 in Tumor: 8.99 % ID Th-227/g organ
  Th-227 in salivary glands: 0.77 % ID Th-227/g organ
[2]; 168 h, study b3004
  Th-227 in Blood: 0.01 % ID Th-227/g organ
  Th-227 in Femur bone: 1.76 % ID Th-227/g organ
  Th-227 in Kidneys: 17.42 % ID Th-227/g organ
  Th-227 in Liver: 1.28 % ID Th-227/g organ
  Th-227 in Spleen: 1.24 % ID Th-227/g organ
  Th-227 in Tumor: 8.68 % ID Th-227/g organ
  Th-227 in salivary glands: 1.17 % ID Th-227/g organ
[2]; 336 h, study b3004
  Th-227 in Blood: 0.00 % ID Th-227/g organ
  Th-227 in Femur bone: 1.55 % ID Th-227/g organ
  Th-227 in Kidneys: 5.40 % ID Th-227/g organ
  Th-227 in Liver: 1.06 % ID Th-227/g organ
  Th-227 in Spleen: 0.73 % ID Th-227/g organ
  Th-227 in Tumor: 2.85 % ID Th-227/g organ
  Th-227 in salivary glands: 1.20 % ID Th-227/g organ
